{"source": "patent US20110301131A1", "about": "“Drug Delivery Implants and Processes for Their Preparation” (priority 2008, published 2011)", "origin": "cited, not measured here", "conditions": "bupivacaine used in regional anaesthesia", "data": [{"smiles": "CCCCN1CCCCC1C(=O)Nc1c(C)cccc1C", "note": "(stereo not shown) [bupivacaine]", "values": [{"measurement": "Half-life", "result": "about 3 hours"}]}]}
